Active and inactive are the calls of the source. The calls are words filed in the database; no cut-off is given here.
Tests used:
[1] = Cytotoxicity against HEK293 cells assessed as inhibition of cell growth incubated for 24 hrs by MTT assay; assay type: toxicity, cell-based; conditions: human
[2] = target: Glucagon receptor (Homo sapiens) (UniProt P47871); test: Antagonist activity at GCGR (unknown origin) expressed in HEK293 cells assessed as inhibition of GCG binding by measuring increase in fluorescence intensity at 10 uM incubated for 30 to 40 mins by FLUO-4 AM fluorescence based flow cytometric analysis; assay type: functional, cell-based; conditions: filed as antagonist, time 30-40 min
Glucagon receptor (Homo sapiens), sequence (P47871 whole entry): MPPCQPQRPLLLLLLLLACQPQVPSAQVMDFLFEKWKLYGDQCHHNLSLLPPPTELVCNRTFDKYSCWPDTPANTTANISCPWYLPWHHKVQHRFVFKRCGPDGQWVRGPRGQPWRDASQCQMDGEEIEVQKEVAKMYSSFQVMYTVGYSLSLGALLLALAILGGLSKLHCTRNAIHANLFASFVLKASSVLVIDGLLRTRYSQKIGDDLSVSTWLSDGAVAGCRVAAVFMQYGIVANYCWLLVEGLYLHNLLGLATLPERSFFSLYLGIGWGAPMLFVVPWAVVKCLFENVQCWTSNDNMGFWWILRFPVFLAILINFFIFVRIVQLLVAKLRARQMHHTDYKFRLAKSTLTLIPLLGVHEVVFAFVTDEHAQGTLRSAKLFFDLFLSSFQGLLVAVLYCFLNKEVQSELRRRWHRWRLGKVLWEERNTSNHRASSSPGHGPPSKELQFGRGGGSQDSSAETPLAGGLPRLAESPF

[3] = target: Glucagon receptor (Homo sapiens) (UniProt P47871); test: Antagonist activity at […] (unknown origin) expressed in HEK293 cells assessed as inhibition of GCG binding by measuring increase in fluorescence intensity at 0.1 mM incubated for 30 to 40 mins by FLUO-4 AM based inverted fluorescence microscopic imaging analysis; assay type: functional, cell-based; conditions: filed as antagonist, time 30-40 min

Activity [2] | Activity [3] | Molecule | IC50 at 24 h [1] [µM]
Active | – | COc1cc2c(cc1OC)[C@@H](Cc1ccc(Oc3cc(C[C@H]4c5cc(OC)c(OC)cc5CCN4C)ccc3O)cc1)N(C)CC2 | 10.6
– | Active | H-SQGTFTSEYSKYLDSRRAQDFVQWL-NH2 | –
